Converted amounts (≈) assume the structure as drawn. Where two headings read alike, the source gives them in different places.
What was measured:
[1] = tested on: awake guinea pig (cholinergically-induced bronchial cramps); test: inhalative provocation with acetyl-β-methylcholine chloride aerosol on awake guinea pigs (broncholytic/protective action); assay type: in vivo; details: for EC50: Cavia porcellus, read-out: EC50, average effective concentration w of acetyl-β-methylcholine chloride (provocation substance) after pre-treatment; for probit analysis reaction % observed: animals reacting with dyspnoea; for probit analysis reaction % calculated: probit regression
Protocol: animal strain: Pirbright white test substance: trospium chloride (MP 194) (M.W. 428) dosage: 3×10^-7 mole ml^-1 kg^-1 mode of administration: intraperitoneally test substance: dehydrotrospium chloride (WG 71) (M.W. 426) […]
reference substance: atropine hydrochloride (Serva; M.W. 325.8) […]
reference substance: isoproterenol (Fluka; M.W. 247.72) dosage: […]
further substances: acetyl-β-methylcholine chloride (Sigma; M.W. 195.7) mode of administration: 0.5 ml. min^-1 by inhalation.
The guinea pigs intended for an experiment are, after an acclimatization time of at least 8 days, subjected twice to an aerosol of 0.1% acetyl-β-methylcholine chloride solution since, as is known from experience, during the first two inhalative provocations, the animals react with more distinct respiratory disturbances than in the case of the subsequent provocations (adaptation). If, in the case of the two inhalation phases, a nonsensitivity (absence of respiratory disturbances) is observed towards the exposure, these animals are excluded from the actual experiment.
For the purpose of aerosol provocation, the guinea pigs are placed individually in an inhalation chamber (see Section 3.6 hereinafter) in which 0.5 ml. of solution per minute are atomized as droplet aerosol by means of a special nozzle (Rhema, Hofheim, Germany). […] With the help of a stopwatch, there is recorded the time from the commencement of inhalation to the appearance of the asphyctic state; the animals are immediately removed from the inhalation chamber and, as a rule, recover in a very short period of time (recovery of consciousness and normalization of breathing). If, within 180 seconds, no dysponea occurs, the inhalation is discontinued.
One aerosol concentration is tested per test day; the time between the individual aerosol provocations is at least 1 week.
The inhalation chamber is a Plexiglass container specially made for this purpose, the lid of which can be closed in an air-tight manner by means of rubber sealing and grip closure means. The internal measurements of the chamber are 285×190×180 mm., which corresponds to a volume of about 9.75 liters. The special nozzle (Rhema, Hofheim, Germany, order No. 504104) is fixed to a recess on the lid and ensures a uniform supply of the available chamber space with the aerosol. The provocation solution is supplied to the nozzle via an infusion pump (Braun, Melsungen, Germany) (0.5 ml./minute) and there atomized with a superpressure of 180 kPa from an attached pressure gas bottle (artificial air, KW-free). For reasons of safety, the aerosol provocation is carried out under a ventilator.
The EC50, as well as the related confidence interval (p>95%), are determined from the probit regression lines of the percentage values (v. supra) provided with weight coefficients after line adaptation by the "maximum likelihood" method (10 iterations). Furthermore, there is examined the adaptation of the lines to the observed data by means of the chiquadrat test. For the evaluation, a calculation programme is commercially available (Olivetti).

[2] = tested on: T1, isolated tracheal spirals of the guinea pig (Cavia porcellus); test: anticholinergic effectiveness on isolated tracheal spirals (antagonism against acetyl-β-methylcholine chloride); details: ratio of maximum agonist effect in presence (EAmB) and absence (EAm) of antagonist
T1 construct: the whole of the trachea is roughly freed beginning from the larynx up to the tracheal bifurcation, removed and transferred; from tissue; host or cells: isolated trachea (spiral strips) of male Pirbright white guinea pigs
Text: (§1) A model for this is the measurement of the anticholinergic effectiveness on isolated tracheal spirals of the guinea pig.
(§2) The test substance used was 3α-benziloyloxynortropane-8-spiro-1'-pyrrolidinium chloride (trospium chloride; MP 194), ipratropium bromide being used as comparison substance.
(§3) There is to be determined the anticholinergic effectiveness of MP 194 in comparison with the reference substance ipratropium bromide on the isolated tracheal spirals of the guinea pig.
(§4) 3.1.1. animal species: guinea pig
(§5) 3.1.2. animal strain: Pirbright white
(§6) 3.3.1. test substance (test antagonist) trospium chloride (MP 194) (M.W. 428)
(§7) 3.3.2. reference substance (reference antagonist) ipratropium bromide (Atrovent) (M.W. 412.4)
(§8) 3.3.3.1. acetyl-β-methylcholine chloride (Sigma) (M.W. 195.7)
(§9) The guinea pig is stunned by a blow on the neck. Subsequently, the whole of the trachea is roughly freed beginning from the larynx up to the tracheal bifurcation, removed and transferred to tempered (37° C.) and carbogenized tyrode solution. After surrounding connective tissue has been removed as far as possible, the preparation is cut up spirally by means of fine scissors at an angle of about 45° and separated into two equal sized sections. After weighing, both preparations are provided proximally and distally with a silk thread. One thread serves for fixing the preparation by means of a loop to the bottom of the bath and the other is connected via a hook with the transducer above the bath vessel.
(§10) Subsequently, the preparations, corresponding to the calibration, are prestressed with about 80 mN and equilibrated from 50-100 minutes. During the equilibration phase, the nutrient solution in the bath vessels is renewed in 15 minute intervals. As soon as the resting muscle tonus of the preparation has stabilized, there takes place the cumulative addition of the agonist, whereby the addition of the next highest concentration first takes place when no further increase of contraction is recognisable (plateau). When the maximum contraction height of the preparation is achieved, the cumulative agonist addition is ended and the preparation is rinsed. After a further equilibration phase (v. supra), the cumulative addition of the agonist is repeated but this time in the presence of the test or reference antagonist.
(§11) 3.6.1. The perfusion part consists of an L-shaped organ bath in the hollow space of which (longer limb) runs a double glass spiral through which the nutrient solution is passed into the actual bath vessel (28 ml. content; shorter limb). This bath vessel is divided into two chambers which are, however, connected together by two transverse connections. […] The inlet chambers as well as the feeding glass spirals are tempered from the outside to 37° C. by a separate liquid circulation. This tempering takes place with the help of a "Colora" ultra-thermostat type K (Colora Messtechnik GmbH, Dusseldorf, Germany) which serves as thermostat and pump. In order, in case of need, always to have available ready-for-use nutrient solution, above the organ bath is provided a double-walled storage container in which the nutrient solution is also tempered and carbogenised. This is connected via a glass stopcock and a polypropylene tube with double glass spiral in the interior of the organ bath.
(§12) 3.6.2. The measurement and recording part includes a transducer (Statham-Universal-Zelle UC-2; Hugo Sachs Elektronic KG, Hugstetten, Germany). By means of a hanging-in weight, a force of 40 mN is produced on the transducer which passes as electrical signal via a connecting cable to a bridge amplifier. The amplification is smoothly so regulated that the force provided corresponds to a constant value on the scale or an analogous value on the millimeter paper of the recorder (dependent upon the amplification; see below). After fixing the organ, the preparation is prestressed to the doubled mark, corresponding to 80 mN. […]

[3] = target: T2, isolated tracheal spirals of the guinea pig (Cavia porcellus, UniProt H0W1Z3); test: as above; details: for antagonism against acetyl-β-methylcholine chloride / anticholinergic effectiveness (in words): isolated guinea pig tracheal spirals
T2 construct: the whole of the trachea is roughly freed beginning from the larynx up to the tracheal bifurcation, removed and transferred; from tissue; host or cells: isolated trachea (spiral strips) of male Pirbright white guinea pigs
Text: as §1, §2, §3, §4, §5, §6, §7, §8, §9, §10, §11, §12

[4] = acetyl-β-methylcholine chloride w=0.001000, 10 tested (isoproterenol 9), pre-treatment 3×10^-7 mol ml^-1 kg^-1 i.p.
[5] = acetyl-β-methylcholine chloride w=0.001000, pre-treatment 3×10^-7 mol ml^-1 kg^-1 i.p.
[6] = acetyl-β-methylcholine chloride w=0.001780, pre-treatment 3×10^-7 mol ml^-1 kg^-1 i.p.
[7] = acetyl-β-methylcholine chloride w=0.001780, trospium chloride 10 tested, dehydrotrospium chloride 9, atropine 9, isoproterenol 8, pre-treatment 3×10^-7 mol ml^-1 kg^-1 i.p.
[8] = acetyl-β-methylcholine chloride w=0.003160, 10 tested (isoproterenol 9), pre-treatment 3×10^-7 mol ml^-1 kg^-1 i.p.
[9] = acetyl-β-methylcholine chloride w=0.003160, pre-treatment 3×10^-7 mol ml^-1 kg^-1 i.p.
[10] = acetyl-β-methylcholine chloride w=0.005620, 10 tested (isoproterenol 9), pre-treatment 3×10^-7 mol ml^-1 kg^-1 i.p.
[11] = acetyl-β-methylcholine chloride w=0.005620, pre-treatment 3×10^-7 mol ml^-1 kg^-1 i.p.

T2 sequence (H0W1Z3 1-590): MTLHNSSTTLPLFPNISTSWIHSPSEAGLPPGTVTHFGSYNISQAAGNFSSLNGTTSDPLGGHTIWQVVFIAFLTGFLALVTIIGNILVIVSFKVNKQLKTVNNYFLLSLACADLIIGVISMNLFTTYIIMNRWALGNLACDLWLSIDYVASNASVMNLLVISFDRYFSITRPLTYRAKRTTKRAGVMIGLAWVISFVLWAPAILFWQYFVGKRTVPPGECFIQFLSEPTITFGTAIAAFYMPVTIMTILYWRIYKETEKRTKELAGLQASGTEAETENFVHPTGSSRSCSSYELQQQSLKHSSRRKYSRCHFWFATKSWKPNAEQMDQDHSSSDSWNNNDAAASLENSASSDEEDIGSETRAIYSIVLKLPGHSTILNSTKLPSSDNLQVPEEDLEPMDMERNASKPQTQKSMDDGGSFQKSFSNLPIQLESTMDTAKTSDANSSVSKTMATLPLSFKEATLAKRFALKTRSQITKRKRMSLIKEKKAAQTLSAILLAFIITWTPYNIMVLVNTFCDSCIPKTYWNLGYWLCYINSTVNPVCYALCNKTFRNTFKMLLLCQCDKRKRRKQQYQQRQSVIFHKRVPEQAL
T1 sequence (H0W1Z3 1-590): as above

O=C(OC1CC2CCC(C1)[N+]21CC=CC1)C(O)(c1ccccc1)c1ccccc1 (stereo not drawn) [dehydrotrospium chloride, 3α-benziloyloxynortropane-8-spiro-1'-(3'-pyrrolinium)chloride]
broncholytic effectiveness compared with atropine and isoproterenol (in words) ([1]; 15 min after i.p. administration, equimolar dosages): comparable with or superior to the well known parasympatholytics atropine and the β-sympathomimetic isoproterenol | EC50 [1]: 1730 µg/mL | number of animals reacting [1, 4]: 3 | probit analysis reaction % observed [1, 5]: 30.00% | probit analysis reaction % calculated [1, 5]: 38.74% | probit analysis reaction % observed [1, 6]: 66.67% | probit analysis reaction % calculated [1, 6]: 50.60% | number of animals reacting [1, 7]: 6 | number of animals reacting [1, 8]: 6 | probit analysis reaction % observed [1, 9]: 60.00% | probit analysis reaction % calculated [1, 9]: 62.35% | number of animals reacting [1, 10]: 7 | probit analysis reaction % observed [1, 11]: 70.00% | probit analysis reaction % calculated [1, 11]: 73.08% | broncholytic effect (in words) ([1]; intraperitoneal, cholinergically-induced bronchial cramps, awake guinea pig): outstanding broncholytic effect

CC(C)[N+]1(C)C2CCC1CC(OC(=O)C(CO)c1ccccc1)C2 (stereo not drawn) [ipratropium bromide, reference compound]
EAmB/EAm ± s [2]: 1.10 ± 0.24 | Kb ([3]; antagonism against acetyl-β-methylcholine chloride, read-out: pA2 ± s (converted)): 0.49 nM | quality of the antagonism (in words) ([3]; comparison of maximum effects in absence and presence of the antagonist): competitive antagonism | antagonism against acetyl-β-methylcholine chloride / anticholinergic effectiveness (in words) [3]: comparable, dosage-dependent antagonism | antagonism against acetyl-β-methylcholine chloride / anticholinergic effectiveness (in words) ([3]; listed as epratropium bromide): dosage dependent antagonism

CC(C)NCC(O)c1ccc(O)c(O)c1 (stereo not drawn) [isoproterenol, reference compound]
EC50 ([1]; pre-treatment 3×10^-7 mol ml^-1 kg^-1 i.p., 15 min before inhalation, w of acetyl-β-methylcholine chloride in atomised solution, control animals w=0.000539, higher = more protection): 1450 µg/mL (≈ 6.86 mM) | number of animals reacting [1, 4]: 3 | probit analysis reaction % observed [1, 5]: 33.33% | probit analysis reaction % calculated [1, 5]: 36.21% | probit analysis reaction % observed [1, 6]: 62.50% | probit analysis reaction % calculated [1, 6]: 57.88% | number of animals reacting [1, 7]: 5 | number of animals reacting [1, 8]: 7 | probit analysis reaction % observed [1, 9]: 77.78% | probit analysis reaction % calculated [1, 9]: 77.28% | number of animals reacting [1, 10]: 8 | probit analysis reaction % observed [1, 11]: 88.89% | probit analysis reaction % calculated [1, 11]: 90.30%
